Each compound was assayed on rabbit skeletal myofibrils (approximately 90% fast fibers) (assay: Activation of fast skeletal myofibrils (PUMA coupled-enzyme ATPase assay)). Conditions: concentration at which the compound increased the enzymatic activity by 40%; calcium at pCa25; PM12 buffer pH 6.8.
Format: biochemical
Description: Preparation of fast skeletal myofibrils: Rabbit skeletal myofibrils were prepared based upon the method of Herrmann et al. (Biochem. 32 (28): 7255-7263 (1993). Myofibrils were prepared from rabbit psoas muscle purchased from Pel-Freez Biologicals (Arkansas) within 2 days of ordering, stored on ice. Minced muscle was homogenized in 10 volumes of ice-cold “standard” buffer (50 mM Tris, pH 7.4, 0.1 M KOAc, 5 mM KCl, 2 mM dithiothreitol (DTT), 0.2 mM phenylmethylsulfonyl fluoride (PMSF), 10 μM leupeptin, 5 μM pepstatin, and 0.5 mM sodium azide) containing 5 mM ethylenediaminetetraacetic acid (EDTA) and 0.5% Triton X-100 using an Omni-Macro homogenizer. Myofibrils were recovered by low speed centrifugation (3000 rpm for 10 minutes) and washed 2 times in the Triton X-100 containing buffer to ensure removal of cellular membrane. Following the Triton washes, myofibrils were washed 3 times in “standard” buffer containing 2 mM magnesium acetate. A final wash in assay buffer (12 mM piperazine-1,4-bis(2-ethanesulfonic acid) (PIPES), pH 6.8, 60 mM KCl, 1 mM DTT) was performed and brought to 10% sucrose for flash freezing in liquid nitrogen and storage at −80° C.
Activation of Fast Skeletal Myofibrils: Fast fiber activators were identified by measuring the enzymatic activity of muscle myofibril preparations using the proprietary PUMA (trademark) (see, e.g., U.S. Pat. Nos. 6,410,254, 6,743,599, 7,202,051, and 7,378,254) assay system. Myofibril preparations consisted of rabbit skeletal muscle (approximately 90% fast fibers) that had been mechanically homogenized and washed with a detergent (Triton X-100) to remove cellular membranes. This preparation retained all of the sarcomeric components in a native conformation and the enzymatic activity was still regulated by calcium. Compounds were tested using a myofibril suspension and a level of calcium sufficient to increase enzymatic activity of the myofibrils to 25% of their maximal rate (termed pCa25). Enzymatic activity was tracked via a pyruvate kinase and lactate dehydrogenase-coupled enzyme system. This assay regenerates myosin-produced ADP into ATP by oxidizing NADH, producing an absorbance change at 340 nm. The buffering system was 12 mM PIPES, 2 mM MgCl2, 1 mM DTT at pH 6.8 (PM12 buffer). […] In Table 3, “Example Compound” refers to the compound labeled with the same number in Table 2.
An AC1.4 of 0.45 µM was found for CCCC1C(=O)Nc2ccccc2N1C(=O)c1ccc(Cl)nc1 (stereo not shown) [Compound 1, 4-(6-chloronicotinoyl)-3-propyl-3,4-dihydroquinoxalin-2(1H)-one] in this work.
An AC1.4 of 0.71 µM was found for CCC[C@H]1C(=O)Nc2ccc(Cl)cc2N1C(=O)c1ccc(Cl)nc1 [Compound 2, (S)-6-chloro-4-(6-chloronicotinoyl)-3-propyl-3,4-dihydroquinoxalin-2(1H)-one] in this work.
An AC1.4 of 0.77 µM was found for CCC[C@H]1C(=O)Nc2ccccc2N1C(=O)c1ccc(C)nc1 [Compound 3, (S)-4-(6-methylnicotinoyl)-3-propyl-3,4-dihydroquinoxalin-2(1H)-one] in this work.
An AC1.4 of 0.72 µM was found for CCC[C@H]1C(=O)Nc2cccc(Br)c2N1C(=O)c1ccc(Cl)nc1 [Compound 4, (S)-5-bromo-4-(6-chloronicotinoyl)-3-propyl-3,4-dihydroquinoxalin-2(1H)-one] in this work.
An AC1.4 of 0.38 µM was found for CCC[C@H]1C(=O)Nc2ccccc2N1C(=O)c1ccc(Cl)nc1 [Compound 5, (S)-4-(6-chloronicotinoyl)-3-propyl-3,4-dihydroquinoxalin-2(1H)-one] in this work.
An AC1.4 of 2.19 µM was found for CCC[C@H]1C(=O)Nc2ccccc2N1C(=O)c1ccc(F)nc1 [Compound 6, (S)-4-(6-fluoronicotinoyl)-3-propyl-3,4-dihydroquinoxalin-2(1H)-one] in this work.
An AC1.4 of 0.96 µM was found for CCC[C@H]1C(=O)Nc2cccc(C3CC3)c2N1C(=O)c1ccc(C)nc1 [Compound 7, (S)-5-Cyclopropyl-4-(6-methylnicotinoyl)-3-propyl-3,4-dihydroquinoxalin-2(1H)-one] in this work.
An AC1.4 of 2.73 µM was found for CCC[C@H]1C(=O)Nc2ccccc2N1C(=O)Nc1ccc(C)nc1 [Compound 8, (S)-N-(6-methylpyridin-3-yl)-3-oxo-2-propyl-3,4-dihydroquinoxaline-1(2H)-carboxamide] in this work.
An AC1.4 of 0.74 µM was found for CCC[C@H]1C(=O)Nc2ccccc2N1C(=O)c1ccc[nH]1 [Compound 9, (S)-3-propyl-4-(1H-pyrrole-2-carbonyl)-3,4-dihydroquinoxalin-2(1H)-one] in this work.
An AC1.4 of 0.33 µM was found for CCC[C@H]1C(=O)Nc2ccccc2N1C(=O)c1ccccc1 [Compound 10, (S)-4-benzoyl-3-propyl-3,4-dihydroquinoxalin-2(1H)-one] in this work.
An AC1.4 of 0.97 µM was found for CCC[C@H]1C(=O)Nc2ccccc2N1C(=O)c1ccncc1 [Compound 11, (S)-4-isonicotinoyl-3-propyl-3,4-dihydroquinoxalin-2(1H)-one] in this work.
An AC1.4 of 1.55 µM was found for CCC[C@H]1C(=O)Nc2ccccc2N1C(=O)c1cccnc1 [Compound 12, (S)-4-nicotinoyl-3-propyl-3,4-dihydroquinoxalin-2(1H)-one] in this work.
An AC1.4 of 1.66 µM was found for CCC[C@H]1C(=O)Nc2ccccc2N1C(=O)c1conc1C [Compound 14, (S)-4-(3-methylisoxazole-4-carbonyl)-3-propyl-3,4-dihydroquinoxalin-2(1H)-one] in this work.
An AC1.4 of 0.17 µM was found for CCC[C@H]1C(=O)Nc2ccccc2N1C(=O)c1cccs1 [Compound 15, (S)-3-propyl-4-(thiophene-2-carbonyl)-3,4-dihydroquinoxalin-2(1H)-one] in this work.
An AC1.4 of 1.41 µM was found for CCC[C@H]1C(=O)Nc2ccccc2N1C(=O)c1cncc(C)c1 [Compound 16, (S)-4-(5-methylnicotinoyl)-3-propyl-3,4-dihydroquinoxalin-2(1H)-one] in this work.
An AC1.4 of 0.17 µM was found for CCC[C@H]1C(=O)Nc2ccccc2N1C(=O)c1cccc(F)c1 [Compound 17, (S)-4-(3-fluorobenzoyl)-3-propyl-3,4-dihydroquinoxalin-2(1H)-one] in this work.
An AC1.4 of 2.97 µM was found for CCC[C@H]1C(=O)Nc2ccccc2N1C(=O)c1cncc(F)c1 [Compound 18, (S)-4-(5-fluoronicotinoyl)-3-propyl-3,4-dihydroquinoxalin-2(1H)-one] in this work.
An AC1.4 of 1.46 µM was found for CCC[C@H]1C(=O)Nc2ccccc2N1C(=O)CCc1ccccc1 [Compound 19, (S)-4-(3-phenylpropanoyl)-3-propyl-3,4-dihydroquinoxalin-2(1H)-one] in this work.
An AC1.4 of 1.52 µM was found for CCC[C@H]1C(=O)Nc2ccccc2N1C(=O)c1cncc(Cl)c1 [Compound 20, (S)-4-(5-chloronicotinoyl)-3-propyl-3,4-dihydroquinoxalin-2(1H)-one] in this work.
An AC1.4 of 0.07 µM was found for CCC[C@H]1C(=O)Nc2ccccc2N1C(=O)c1ccc(F)c(F)c1 [Compound 21, (S)-4-(3,4-difluorobenzoyl)-3-propyl-3,4-dihydroquinoxalin-2(1H)-one] in this work.
An AC1.4 of 2.76 µM was found for CCC[C@H]1C(=O)Nc2ccccc2N1C(=O)c1ccc(NC(C)=O)nc1 [Compound 22, (S)-N-(5-(3-oxo-2-propyl-1,2,3,4-tetrahydroquinoxaline-1-carbonyl)pyridin-2-yl)acetamide] in this work.
An AC1.4 of 1.33 µM was found for CCC[C@H]1C(=O)Nc2ccccc2N1C(=O)c1ccc(-n2cccc2)nc1 [Compound 23, (S)-4-(6-(1H-pyrrol-1-yl)nicotinoyl)-3-propyl-3,4-dihydroquinoxalin-2(1H)-one] in this work.
An AC1.4 of 0.4 µM was found for CCC[C@H]1C(=O)Nc2ccccc2N1C(=O)c1ccc(OC(F)F)nc1 [Compound 24, (S)-4-(6-(difluoromethoxy)nicotinoyl)-3-propyl-3,4-dihydroquinoxalin-2(1H)-one] in this work.
An AC1.4 of 2.34 µM was found for CCC[C@H]1C(=O)Nc2ccccc2N1C(=O)c1ccc(OC(F)(F)F)nc1 [Compound 25, (S)-3-propyl-4-(6-(trifluoromethoxy)nicotinoyl)-3,4-dihydroquinoxalin-2(1H)-one] in this work.
An AC1.4 of 0.56 µM was found for CCC[C@H]1C(=O)Nc2ccccc2N1C(=O)c1cnc2[nH]ccc2c1 [Compound 26, (S)-3-propyl-4-(1H-pyrrolo[2,3-b]pyridine-5-carbonyl)-3,4-dihydroquinoxalin-2(1H)-one] in this work.
An AC1.4 of 0.76 µM was found for CCC[C@H]1C(=O)Nc2ccccc2N1C(=O)c1ccc(N)nc1 [Compound 27, (S)-4-(6-aminonicotinoyl)-3-propyl-3,4-dihydroquinoxalin-2(1H)-one] in this work.
An AC1.4 of 1.42 µM was found for CCC[C@H]1C(=O)Nc2ccccc2N1C(=O)c1ccc(N(C)C)nc1 [Compound 28, (S)-4-(6-(dimethylamino)nicotinoyl)-3-propyl-3,4-dihydroquinoxalin-2(1H)-one] in this work.
An AC1.4 of 2.7 µM was found for CCC[C@H]1C(=O)Nc2ccccc2N1C(=O)c1ccc(N2CCCCC2)nc1 [Compound 29, (S)-4-(6-(piperidin-1-yl)nicotinoyl)-3-propyl-3,4-dihydroquinoxalin-2(1H)-one] in this work.
An AC1.4 of 0.42 µM was found for CCC[C@H]1C(=O)Nc2ccccc2N1C(=O)c1cnn(CC)c1 [Compound 30, (S)-4-(1-ethyl-1H-pyrazole-4-carbonyl)-3-propyl-3,4-dihydroquinoxalin-2(1H)-one] in this work.
An AC1.4 of 0.41 µM was found for CCC[C@H]1C(=O)Nc2ccccc2N1C(=O)c1cnn(CC2CC2)c1 [Compound 31, (S)-4-(1-(cyclopropylmethyl)-1H-pyrazole-4-carbonyl)-3-propyl-3,4-dihydroquinoxalin-2(1H)-one] in this work.
An AC1.4 of 0.71 µM was found for CCC[C@H]1C(=O)Nc2ccccc2N1C(=O)c1cnn(C2CCC2)c1 [Compound 32, (S)-4-(1-cyclobutyl-1H-pyrazole-4-carbonyl)-3-propyl-3,4-dihydroquinoxalin-2(1H)-one] in this work.
An AC1.4 of 0.95 µM was found for CCC[C@H]1C(=O)Nc2ccccc2N1C(=O)c1ccc(N(C)CC)nc1 [Compound 33, (S)-4-(6-(ethyl(methyl)amino)nicotinoyl)-3-propyl-3,4-dihydroquinoxalin-2(1H)-one] in this work.
An AC1.4 of 2.59 µM was found for CCC[C@H]1C(=O)Nc2ccccc2N1C(=O)c1ccc(NCC(F)(F)F)nc1 [Compound 34, (S)-3-propyl-4-(6-((2,2,2-trifluoroethyl)amino)nicotinoyl)-3,4-dihydroquinoxalin-2(1H)-one] in this work.
An AC1.4 of 1.32 µM was found for CCC[C@H]1C(=O)Nc2ccccc2N1C(=O)c1ccc(N2CCCCCC2)nc1 [Compound 35, (S)-4-(6-(azepan-1-yl)nicotinoyl)-3-propyl-3,4-dihydroquinoxalin-2(1H)-one] in this work.
An AC1.4 of 0.65 µM was found for CCC[C@H]1C(=O)Nc2ccccc2N1C(=O)c1ccc(NCc2ccccc2)nc1 [Compound 36, (S)-4-(6-(benzylamino)nicotinoyl)-3-propyl-3,4-dihydroquinoxalin-2(1H)-one] in this work.
An AC1.4 of 0.58 µM was found for CCC[C@H]1C(=O)Nc2ccccc2N1C(=O)c1ccc(N(C)C2CC2)nc1 [Compound 37, (S)-4-(6-(cyclopropyl(methyl)amino)nicotinoyl)-3-propyl-3,4-dihydroquinoxalin-2(1H)-one] in this work.
An AC1.4 of 1.58 µM was found for CCC[C@H]1C(=O)Nc2ccccc2N1C(=O)c1ccc(N2CC(F)C2)nc1 [Compound 38, (S)-4-(6-(3-fluoroazetidin-1-yl)nicotinoyl)-3-propyl-3,4-dihydroquinoxalin-2(1H)-one] in this work.
